Assay results as given in US11793845B2, “Composition for ameliorating peripheral sensory neuropathy” (KINKI UNIVERSITY, priority 2016, dated 2023).

Tests used:
Type in all cases: in vivo
[1] = system: Peripheral Sensory Neuropathy Induced by Bortezomib in Mice; assay: cold plate test, bortezomib-induced peripheral sensory neuropathy; conditions: duloxetine 30 mg/kg daily
Method: (§1) The effect of the Lentinus edodes mycelium extract on the paresthesia to cold stimulation was tested by performing the cold plate test. The mice in the three groups in the above (1) were put on a cold plate set to 10° C. and a response time for avoidance (a latency) was measured. The shorter latency means that the mouse avoids the cold stimulation of the cold plate more.
In the present test, the mice were divided into three groups by a difference in test objects. As in Example 1, male Balb/c mice of 6 to 7 weeks old were used. The mice were divided into a total of three groups, a control group, a bortezomib administration group, and a bortezomib and Lentinus edodes mycelium extract administration group (bortezomib+Lentinus edodes mycelium extract administration group).
Bortezomib was administered to each mouse once a day at a dose of 1 mg/kg. Further, the Lentinus edodes mycelium extract was administered to each mouse once a day at a dose of 2 g/kg.
Evaluation was performed in the same manner as in the test with oxaliplatin in Example 1. Referring to FIG. 8, the horizontal axis indicates the elapsed time after administration (days) and the vertical axis indicates the avoidance response time (seconds). Open circles with a solid line represent the control group. Filled circles with a solid line represent the group in which only bortezomib was administered. Open squares with a dash line represent the group in which bortezomib and the Lentinus edodes mycelium extract were administered at the same time (bortezomib+Lentinus edodes mycelium extract administration groups). When the difference with the control group was determined to be significant using a significance level of 5%, the data were marked by “*”.
(§2) In the present test, the mice were divided into six groups by a difference in test objects. As in Example 1, male Balb/c mice of 6 to 7 weeks old were used. […]

[2] = system: Peripheral Sensory Neuropathy Induced by Vincristine in Mice; assay: cold plate test, vincristine-induced peripheral sensory neuropathy; conditions: duloxetine 30 mg/kg daily
Method: as §1
In the present test, the mice were divided into three groups by a difference in test objects. As in Example 1, male Balb/c mice of 6 to 7 weeks old were used. The mice were divided into a total of three groups, a control group, a vincristine
administration group, and a vincristine and Lentinus edodes mycelium extract administration group (vincristine+Lentinus edodes mycelium extract administration group).
Vincristine was administered to each mouse once a day at a dose of 0.2 mg/kg. Further, the Lentinus edodes mycelium extract was administered to each mouse once a day at a dose of 2 g/kg.
Evaluation was performed in the same manner as in the test with oxaliplatin in Example 1. Referring to FIG. 6, the horizontal axis indicates the elapsed time after administration (days) and the vertical axis indicates the avoidance response time (seconds). Open circles with a solid line represent the control group. Filled circles with a solid line represent the group in which only vincristine was administered. Open squares with a dash line represent the group in which vincristine and the Lentinus edodes mycelium extract were administered at the same time (vincristine+Lentinus edodes mycelium extract administration group). When the difference with the control group was determined to be significant using a significance level of 5%, the data were marked by “*”.
as §2

[3] = system: Peripheral Sensory Neuropathy Induced by Oxaliplatin in Mice; assay: von Frey test, oxaliplatin-induced peripheral sensory neuropathy
Method: Male Balb/c mice of 6 to 7 weeks old were used. The mice were divided into three groups: a control group, an oxaliplatin administration group, and an oxaliplatin and Lentinus edodes mycelium extract administration group (oxaliplatin+Lentinus edodes mycelium extract administration group). Oxaliplatin was administered to each mouse once a day at a dose of 6 mg/kg. Further, the Lentinus edodes mycelium extract was administered to each mouse once a day at a dose of 2 g/kg.
Further, the number of times of administration was set to once a week (on Day 0, Day 7, and Day 14) for oxaliplatin and daily (from Day 0 to Day 15) for the Lentinus edodes mycelium extract in both the von Frey test and the cold plate test below.
The higher number of times of avoidance means that the mouse avoids the stimulation by the filament more. […] When the difference with the control group was determined to be significant using a significance level of 5%, the data were marked by “*”.

CNCC[C@H](Oc1cccc2ccccc12)c1cccs1 [duloxetine]
latency compared with bortezomib administration group, cold plate test ([1]; 3-day delayed after bortezomib): almost the same as that in the bortezomib administration group
latency, cold plate test ([1]; 6-day delayed after bortezomib): same tendency as that in the duloxetine 3-day delayed administration group
latency compared with vincristine administration group, cold plate test ([2]; 3-day delayed after vincristine): almost the same as that in the vincristine administration group
latency, cold plate test ([2]; 6-day delayed after vincristine): same tendency as that in the duloxetine 3-day delayed administration group
avoidance score compared with oxaliplatin administration group, von Frey test ([3]; duloxetine 30 mg/kg daily Day 3 to Day 23 (3-day delayed) after oxaliplatin 6 mg/kg weekly): almost the same score as that in the oxaliplatin administration group
avoidance score, von Frey test ([3]; duloxetine 30 mg/kg daily Day 6 to Day 23 (6-day delayed) after oxaliplatin 6 mg/kg weekly): same tendency as that in the duloxetine 3-day delayed administration group
